Values after ≈ are worked out from the molar mass of the structure shown.
Columns and labels:
LOX IMVI = assay: Growth inhibition of human LOX IMVI cells at 10 uM relative to control; format: functional; settings: read-out: GI
MDA-MB-468 = assay: Growth inhibition of human MDA-MB-468 cells at 10 uM relative to control; format: functional; settings: read-out: GI
T47D = assay: Growth inhibition of human T47D cells at 10 uM relative to control; format: functional; settings: read-out: GI
CCRF-CEM = assay: Growth inhibition of human CCRF-CEM cells at 10 uM relative to control; format: functional; settings: read-out: GI
HL-60(TB) = assay: Growth inhibition of human HL-60(TB) cells at 10 uM relative to control; format: functional; settings: read-out: GI
K562 = assay: Growth inhibition of human K562 cells at 10 uM relative to control; format: functional; settings: read-out: GI
MOLT-4 = assay: Growth inhibition of human MOLT-4 cells at 10 uM relative to control; format: functional; settings: read-out: GI
RPMI-8226 = assay: Growth inhibition of human RPMI-8226 cells at 10 uM relative to control; format: functional; settings: read-out: GI
SR = assay: Growth inhibition of human SR cells at 10 uM relative to control; format: functional; settings: read-out: GI
A549 = assay: Growth inhibition of human A549 cells at 10 uM relative to control; format: functional; settings: read-out: GI
HOP-62 = assay: Growth inhibition of human HOP-62 cells at 10 uM relative to control; format: functional; settings: read-out: GI
HOP-92 = assay: Growth inhibition of human HOP-92 cells at 10 uM relative to control; format: functional; settings: read-out: GI
NCI-H226 = assay: Growth inhibition of human NCI-H226 cells at 10 uM relative to control; format: functional; settings: read-out: GI
NCI-H23 = assay: Growth inhibition of human NCI-H23 cells at 10 uM relative to control; format: functional; settings: read-out: GI
NCI-H322M = assay: Growth inhibition of human NCI-H322M cells at 10 uM relative to control; format: functional; settings: read-out: GI
NCI-H460 = assay: Growth inhibition of human NCI-H460 cells at 10 uM relative to control; format: functional; settings: read-out: GI
NCI-H522 = assay: Growth inhibition of human NCI-H522 cells at 10 uM relative to control; format: functional; settings: read-out: GI
SW-620 = assay: Growth inhibition of human SW-620 cells at 10 uM relative to control; format: functional; settings: read-out: GI
COLO 205 = assay: Growth inhibition of human COLO 205 cells at 10 uM relative to control; format: functional; settings: read-out: GI
HCC 2998 = assay: Growth inhibition of human HCC 2998 cells at 10 uM relative to control; format: functional; settings: read-out: GI
HCT-116 = assay: Growth inhibition of human HCT-116 cells at 10 uM relative to control; format: functional; settings: read-out: GI
HCT-15 = assay: Growth inhibition of human HCT-15 cells at 10 uM relative to control; format: functional; settings: read-out: GI
HT-29 = assay: Growth inhibition of human HT-29 cells at 10 uM relative to control; format: functional; settings: read-out: GI
KM12 = assay: Growth inhibition of human KM12 cells at 10 uM relative to control; format: functional; settings: read-out: GI
SF-268 = assay: Growth inhibition of human SF-268 cells at 10 uM relative to control; format: functional; settings: read-out: GI
SF-295 = assay: Growth inhibition of human SF-295 cells at 10 uM relative to control; format: functional; settings: read-out: GI
SF-539 = assay: Growth inhibition of human SF-539 cells at 10 uM relative to control; format: functional; settings: read-out: GI
SNB-19 = assay: Growth inhibition of human SNB-19 cells at 10 uM relative to control; format: functional; settings: read-out: GI
SNB-75 = assay: Growth inhibition of human SNB-75 cells at 10 uM relative to control; format: functional; settings: read-out: GI
U-251 = assay: Growth inhibition of human U-251 cells at 10 uM relative to control; format: functional; settings: read-out: GI
Malme-3M = assay: Growth inhibition of human Malme-3M cells at 10 uM relative to control; format: functional; settings: read-out: GI
M14 = assay: Growth inhibition of human M14 cells at 10 uM relative to control; format: functional; settings: read-out: GI
MDA-MB-435 = assay: Growth inhibition of human MDA-MB-435 cells at 10 uM relative to control; format: functional; settings: read-out: GI
SK-MEL-2 = assay: Growth inhibition of human SK-MEL-2 cells at 10 uM relative to control; format: functional; settings: read-out: GI
SK-MEL-28 = assay: Growth inhibition of human SK-MEL-28 cells at 10 uM relative to control; format: functional; settings: read-out: GI
SK-MEL-5 = assay: Growth inhibition of human SK-MEL-5 cells at 10 uM relative to control; format: functional; settings: read-out: GI
UACC-257 = assay: Growth inhibition of human UACC-257 cells at 10 uM relative to control; format: functional; settings: read-out: GI
UACC-62 = assay: Growth inhibition of human UACC-62 cells at 10 uM relative to control; format: functional; settings: read-out: GI
IGROV-1 = assay: Growth inhibition of human IGROV-1 cells at 10 uM relative to control; format: functional; settings: read-out: GI
OVCAR-4 = assay: Growth inhibition of human OVCAR-4 cells at 10 uM relative to control; format: functional; settings: read-out: GI
OVCAR-5 = assay: Growth inhibition of human OVCAR-5 cells at 10 uM relative to control; format: functional; settings: read-out: GI
OVCAR-8 = assay: Growth inhibition of human OVCAR-8 cells at 10 uM relative to control; format: functional; settings: read-out: GI
NCI/ADR-RES = assay: Growth inhibition of human NCI/ADR-RES cells at 10 uM relative to control; format: functional; settings: read-out: GI
SK-OV-3 = assay: Growth inhibition of human SK-OV-3 cells at 10 uM relative to control; format: functional; settings: read-out: GI
786-0 = assay: Growth inhibition of human 786-0 cells at 10 uM relative to control; format: functional; settings: read-out: GI
A498 = assay: Growth inhibition of human A498 cells at 10 uM relative to control; format: functional; settings: read-out: GI
ACHN = assay: Growth inhibition of human ACHN cells at 10 uM relative to control; format: functional; settings: read-out: GI
CAKI-1 = assay: Growth inhibition of human CAKI-1 cells at 10 uM relative to control; format: functional; settings: read-out: GI
RXF 393 = assay: Growth inhibition of human RXF 393 cells at 10 uM relative to control; format: functional; settings: read-out: GI
SN12C = assay: Growth inhibition of human SN12C cells at 10 uM relative to control; format: functional; settings: read-out: GI
TK-10 = assay: Growth inhibition of human TK-10 cells at 10 uM relative to control; format: functional; settings: read-out: GI
UO-31 = assay: Growth inhibition of human UO-31 cells at 10 uM relative to control; format: functional; settings: read-out: GI
PC-3 = assay: Growth inhibition of human PC-3 cells at 10 uM relative to control; format: functional; settings: read-out: GI
DU-145 = assay: Growth inhibition of human DU-145 cells at 10 uM relative to control; format: functional; settings: read-out: GI
MCF7 = assay: Growth inhibition of human MCF7 cells at 10 uM relative to control; format: functional; settings: read-out: GI
MDA-MB-231 = assay: Growth inhibition of human MDA-MB-231 cells at 10 uM relative to control; format: functional; settings: read-out: GI
Hs-578T = assay: Growth inhibition of human Hs-578T cells at 10 uM relative to control; format: functional; settings: read-out: GI
BT-549 = assay: Growth inhibition of human BT-549 cells at 10 uM relative to control; format: functional; settings: read-out: GI
DNA = assay: Displacement of methyl green from DNA (unknown origin) assessed as DNA intercalation after 24 hrs by colorimetric assay; format: nucleic-acid assay

## CC1=CSC2=NC(/C=C/c3cccs3)=CC(c3cccs3)N12 (centres undefined)
LOX IMVI
  inhibition of growth at 10 µM: < 10%
MDA-MB-468
  inhibition of growth at 10 µM: < 10%
T47D
  inhibition of growth at 10 µM: < 10%
CCRF-CEM
  inhibition of growth at 10 µM: < 10%
HL-60(TB)
  inhibition of growth at 10 µM: < 10%
K562
  inhibition of growth at 10 µM: < 10%
MOLT-4
  inhibition of growth at 10 µM: < 10%
RPMI-8226
  inhibition of growth at 10 µM: < 10%
SR
  inhibition of growth at 10 µM: < 10%
A549
  inhibition of growth at 10 µM: < 10%
HOP-62
  inhibition of growth at 10 µM: < 10%
HOP-92
  inhibition of growth at 10 µM: < 10%
NCI-H226
  inhibition of growth at 10 µM: < 10%
NCI-H23
  inhibition of growth at 10 µM: < 10%
NCI-H322M
  inhibition of growth at 10 µM: < 10%
NCI-H460
  inhibition of growth at 10 µM: < 10%
NCI-H522
  inhibition of growth at 10 µM: 13.3%
SW-620
  inhibition of growth at 10 µM: < 10%
COLO 205
  inhibition of growth at 10 µM: < 10%
HCC 2998
  inhibition of growth at 10 µM: < 10%
HCT-116
  inhibition of growth at 10 µM: < 10%
HCT-15
  inhibition of growth at 10 µM: < 10%
HT-29
  inhibition of growth at 10 µM: < 10%
KM12
  inhibition of growth at 10 µM: < 10%
SF-268
  inhibition of growth at 10 µM: < 10%
SF-295
  inhibition of growth at 10 µM: < 10%
SF-539
  inhibition of growth at 10 µM: < 10%
SNB-19
  inhibition of growth at 10 µM: < 10%
SNB-75
  inhibition of growth at 10 µM: < 10%
U-251
  inhibition of growth at 10 µM: < 10%
Malme-3M
  inhibition of growth at 10 µM: < 10%
M14
  inhibition of growth at 10 µM: < 10%
MDA-MB-435
  inhibition of growth at 10 µM: < 10%
SK-MEL-2
  inhibition of growth at 10 µM: < 10%
SK-MEL-28
  inhibition of growth at 10 µM: < 10%
SK-MEL-5
  inhibition of growth at 10 µM: < 10%
UACC-257
  inhibition of growth at 10 µM: < 10%
UACC-62
  inhibition of growth at 10 µM: < 10%
IGROV-1
  inhibition of growth at 10 µM: < 10%
OVCAR-4
  inhibition of growth at 10 µM: < 10%
OVCAR-5
  inhibition of growth at 10 µM: < 10%
OVCAR-8
  inhibition of growth at 10 µM: < 10%
NCI/ADR-RES
  inhibition of growth at 10 µM: < 10%
SK-OV-3
  inhibition of growth at 10 µM: < 10%
786-0
  inhibition of growth at 10 µM: < 10%
A498
  inhibition of growth at 10 µM: < 10%
ACHN
  inhibition of growth at 10 µM: < 10%
CAKI-1
  inhibition of growth at 10 µM: < 10%
RXF 393
  inhibition of growth at 10 µM: < 10%
SN12C
  inhibition of growth at 10 µM: < 10%
TK-10
  inhibition of growth at 10 µM: < 10%
UO-31
  inhibition of growth at 10 µM: < 10%
PC-3
  inhibition of growth at 10 µM: < 10%
DU-145
  inhibition of growth at 10 µM: < 10%
MCF7
  inhibition of growth at 10 µM: < 10%
MDA-MB-231
  inhibition of growth at 10 µM: < 10%
Hs-578T
  inhibition of growth at 10 µM: < 10%
BT-549
  inhibition of growth at 10 µM: < 10%
DNA
  IC50: 39.82 µg/mL (≈ 116 µM)

— ChEMBL document CHEMBL4665869, “New thiazolopyrimidine as anticancer agents: Synthesis, biological evaluation, DNA binding, molecular modeling and ADMET study” (Bioorg Med Chem Lett, 2020)
